From patent publication US20250019652A1, “PRODUCTION METHOD FOR SHEET-LIKE RETINAL TISSUE” (RIKEN, priority 2021, published 2025)

Columns and labels:
Format in all cases: cell-based, human
[1] = system: aggregates (NR), KhES-1-derived neural retinal tissues; experiment: Study on enhancement in CD39 expression, FACS (Example 25); conditions: added Day 17 to Day 25; DMSO control
Description: For aggregates (NR) prepared by adding 300 nM SAG at the start of differentiation (dd0), 10 neural retinal tissues were transferred to low adhesive 60-mm Petri dish for suspension culture (manufactured by Sumitomo Bakelite Co., Ltd.) on Day 17 from initiation of the suspension culture. 1 mM or 0.2 mM adenosine (A2A receptor agonist, manufactured by Sigma-Aldrich Co. LLC), 1 mM, 0.2 mM, or 0.04 mM AMP-PNP (manufactured by Tocris Bioscience), 5 mM, 1 mM, 0.2 mM, or 0.04 mM ATP disodium salt (manufactured by Tocris Bioscience), and 1μ, 0.2μ, or 0.04μ M CGS 21680 (Adenosine A2A Receptor Agonist, manufactured by Tocris Bioscience) were added into 4 mL of NucT0 medium. Culture was performed up to Day 25 from initiation of the suspension culture. Change in expression of CD39 and CXCR4 was stained using Mouse IgG1-APC conjugate antibody (Miltenyi Biotec), anti-CD39-BV421 conjugate antibody (BD Biosciences) and anti-CXCR4-APC conjugate antibody (Miltenyi Biotec) and measured using FACSCantoII (BD Biosciences), and analysis was conducted using FlowJo. As a control, a DMSO addition group was established.

[2] = system: Rx::Venus-sorted cells (KhES-1-derived NR, Day 25); experiment: Search of factor that maintains property of retina at preparation into sheet again (Example 18); conditions: compared with PBS control; 10 days after seeding
Description: The aggregates (NR) of Day 25 from initiation of the suspension culture prepared in Example 1 were washed with PBS, and a neuronal cell dispersion solution (manufactured by FUJIFILM Wako Pure Chemical Corp.) was added. After incubation at 37° C., they were dispersed into single cells by pipetting, and sorting was carried out with Rx::Venus as an index using Cell sorter ARIAII (Becton, Dickinson and Company).
3 days after seeding, the medium was similarly replaced so as to maintain the concentrations of the low-molecular compounds or the proteins described in Tables 1 and 2. […] 10 days after seeding, fixation was performed in 4% PFA, and the evaluation of the cells after sorting was conducted with Rx::Venus as an index under a fluorescence microscope (BZ-X810 manufactured by Keyence Corp.).

[3] = system: single cells dispersed from KhES-1- and 1231A3-derived aggregates; experiment: Aggregate proliferation-promoting factor: aggregate area in suspension culture with Y-27632 (Example 2); conditions: SAG 300 nM or CHIR99021 3 μM in addition to 10 μM Y-27632; Day 1, 7, 14
Description: The aggregates of Day 20 (1231A3) and Day 27 (KhES-1) from initiation of the suspension culture prepared as in Example 1 were washed with PBS, and a neuronal cell dispersion solution (manufactured by FUJIFILM Wako Pure Chemical Corp.) was added. After incubation at 37° C., they were dispersed into single cells by pipetting. These cells were suspended in 100 μL of a serum-free medium containing 10 μM Y-27632 (FUJIFILM Wako Pure Chemical Corp.) so as to become 2 to 5×10^5 cells per well of a non-cell adhesive 96-well culture plate (trade name: PrimeSurface 96-well V-bottom plate, manufactured by Sumitomo Bakelite Co., Ltd.), and suspension-cultured at 37° C. and 5% CO2. […] The reformed states of the aggregates were observed under a bright field microscope and a fluorescence microscope (BZ-X810 manufactured by Keyence Corp.) on Day 1, Day 7, and Day 14 after suspension culture for aggregate reforming. The areas of the aggregates were measured in Image J. The results of the KhES-1-derived cells are shown in FIG. 6 (an average value from 12 […] measured). The results of the 1231A3-derived cells in which the reformed states of the aggregates of Day 1 after suspension culture were observed are shown in FIG. 7.

[4] = system: single cell suspension of dispersed retinal cells (KhES-1-derived); experiment: Layer structure formation-promoting factor: reformed aggregates, immunostained sections (Example 3); conditions: 300 nM SAG in addition to 3 μM CHIR99021
Description: The aggregates of Day 26 from initiation of the suspension culture prepared as in Example 1 were washed with PBS, and a neuronal cell dispersion solution (manufactured by FUJIFILM Wako Pure Chemical Corp.) was added. After incubation at 37° C., they were dispersed into single cells by pipetting. These cells were suspended in 100 μL of a serum-free medium so as to become 3.0×10^4 cells per well of a non-cell adhesive 96-well culture plate (trade name: PrimeSurface 96-well V-bottom plate, manufactured by Sumitomo Bakelite Co., Ltd.), and suspension-cultured at 37° C. and 5% CO2.
The aggregates of Day 15 (corresponding to Differentiation Day 41) and Day 28 (corresponding to Differentiation Day 54) after suspension culture for aggregate reforming were fixed in 4% PFA, and frozen sections were prepared. These frozen sections were subjected to immunostaining using DAPI and anti-Chx10 antibody (trade name: Anti CHX10 Antibody, Exalpha Biologicals Inc.), anti-β-catenin antibody (R&D Systems, Inc.), anti-collagen IV antibody (Abcam plc), anti-Zo-1 antibody (Invitrogen Corp.), anti-Ki67 antibody (Becton, Dickinson and Company), anti-Pax6 antibody (BioLegend, Inc.), anti-RxR-γ (RxRg) antibody (Spring Bioscience Corp.), anti-CRX antibody (Abnova Corp.), anti-NRL antibody (R&D Systems, Inc.), anti-recoverin antibody (manufactured by Proteintech Group, Inc.), anti-Islet-1 antibody (Developmental Studies Hybridoma Bank (DSHB)), anti-GS antibody (Sigma-Aldrich Co., LLC), anti-Brn3 antibody (Santa Cruz Biotechnology), and anti-calretinin antibody (R&D Systems, Inc.).
These immunostained sections were observed under a bright field microscope and a fluorescence microscope (BZ-X810 manufactured by Keyence Corp.) and a confocal laser scanning fluorescence microscope (SP-8 manufactured by Leica), and the results are shown in FIGS. 11 to 20. […] From FIGS. 19 and 20, it was confirmed that RxR-Y(RxRg)-positive and CRX-positive cone progenitor cells and recoverin-positive and CRX-positive photoreceptor progenitor cells were differentiated, and the differentiation of Islet-1-positive and Brn3-positive retinal ganglion cells and calretinin-positive amacrine cells was also confirmed.

[5] = system: KhES-1 Rx::Venus aggregates (NR) of Day 26; experiment: CD39 expression analysis with different concentrations of SAG at start of differentiation (Example 24)
Description: The morphology of aggregates (NR) of Day 26 from initiation of the suspension culture prepared by adding (1) 0 nM, (2) 30 nM, or (3) 300 nM SAG at the start of differentiation was observed under a microscope.
The aggregates were dispersed into single cells using a neuronal cell dispersion solution, and FACS analysis was conducted as to the expression of CD39 and CXCR4 using anti-CD39-APC conjugate antibody (Miltenyi Biotec) and anti-CXCR4-APC conjugate antibody (Miltenyi Biotec). The percentage of an expressing cell population was measured using FACSCantoII (BD Biosciences), and analysis was conducted using FlowJo. These aggregates were fixed in 4% PFA, and sections were prepared and then subjected to staining using anti-ALDH1A1 antibody (R&D Systems, Inc.), anti-CoupTF1 antibody (Perseus Proteomics Inc. (PPMX)), anti-LHX2 antibody (manufactured by Merck Millipore), anti-Chx10 antibody (manufactured by Exalpha Biologicals Inc.), anti-Pax2 antibody (manufactured by Covance), and anti-NKX2.1 antibody (manufactured by Leica).

[6] = system: retinal progenitor cells dispersed into single cells (KhES-1- and 1231A3-derived aggregates); experiment: Search of aggregate reforming factor: suspension culture of dispersed retinal cells (Example 1); conditions: added at cell seeding; Y-27632 10 μM or 20 μM; Day 1 to Day 2 of suspension culture
Description: Human ES cells (KhES-1 strain (Non Patent Literature 3)) and human iPS cells (1231A3 strain, Kyoto University) genetically engineered so as to have Rx::Venus reporter gene were cultured under feeder-free conditions in accordance with the method described in “Scientific Reports, 4, 3594 (2014)”. As a feeder-free medium, StemFit medium (trade name: AK03N, manufactured by Ajinomoto Co., Inc.) was used, and as a scaffold as an alternative to feeder cells, Laminin511-E8 (trade name, manufactured by Nippi, Inc.) was used.
Specific operation of maintenance culture for human ES and human iPS cells (human ES/iPS cells) was performed as follows: First, human ES/iPS cells that reached sub-confluency (state where about 60% of the culture area was covered by cells) were washed with PBS and separated into single cells by use of TrypLE Select (trade name, manufactured by Life Technologies). In this context, the dispersion into single cells refers to performing dispersion so as to become single cells, and a cell population dispersed into single cells is capable of containing a mass of 2 to 50 cells, in addition to single cells. Then, the separated human ES single cells were seeded in plastic culture dishes coated with Laminin 511-E8 and cultured under feeder-free conditions in StemFit medium in the presence of Y-27632 (ROCK inhibitor, 10 μM). […]

[7] = system: Rx::Venus-positive cells (KhES-1-derived); experiment: Maintenance culture of retinal cell in Rx::Venus strain (Example 13); conditions: 20 ng/ml continuously added; after 34 days
Description: The aggregates of Day 31 from initiation of the suspension culture prepared as in Example 1 were washed with PBS, and a neuronal cell dispersion solution (manufactured by FUJIFILM Wako Pure Chemical Corp.) was added. After incubation at 37° C., they were dispersed into single cells by pipetting.
After 34 days, cell sheets were fixed in 4% PFA, and the nuclei were stained using DAPI. Observation was made focusing on the areas of Rx::Venus-positive cells, and the state of maintenance of retinal cells was studied.

Nc1ncnc2c1ncn2[C@@H]1O[C@H](COP(=O)(O)OP(=O)([O-])OP(=O)([O-])O)[C@@H](O)[C@H]1O.[Na+].[Na+] [ATP]
expression of CD39 (FACS) [1]: enhancing the expression of CD39
expression of CXCR4 (FACS) [1]: decreasing the expression of CXCR4

O=C(Nc1cccc2cccnc12)c1ccc(N2C(=O)[C@@H]3[C@H](C2=O)[C@@H]2C=C[C@H]3C2)cc1 [IWR1 endo, 4-[(3aR,4S,7R,7aS)-1,3,3a,4,7,7a-hexahydro-1,3-dioxo-4,7-methano-2H-isoindol-2-yl]-N-8-quinolinyl-benzamide, reference compound]
expression intensity of Rx::Venus [2]: high expression intensity of Rx::Venus

CNC1CCC(N(Cc2cccc(-c3ccncc3)c2)C(=O)c2sc3ccccc3c2Cl)CC1 (centres unmarked) [SAG]
size of reformed aggregates versus only Y-27632 [3]: larger aggregates were reformed
size of aggregates [4]: aggregates were larger
morphology of aggregates ([5]; 0 nM and 30 nM SAG compared with 300 nM SAG at dd0, Day 26): aggregates were larger and a layer structure was clearer
expression of CD39 (FACS) ([5]; 300 nM SAG at dd0): CD39 was expressed
expression of CXCR4 (FACS) ([5]; 300 nM SAG at dd0): low expression of CXCR4 was observed
expression of dorsal marker ALDH1A1 ([5]; addition of SAG on dd0): Decrease in expression of a dorsal marker ALDH1A1
expression of ventral marker CoupTF1 ([5]; addition of SAG on dd0): increase in expression of a ventral marker CoupTF1

C[C@@H](N)[C@H]1CC[C@H](C(=O)Nc2ccncc2)CC1 [Y-27632]
early aggregate reforming [6]: aggregates were reformed from Day 1 to Day 2

EGF: growth factor added at 20 ng/ml
maintenance of Rx::Venus-positive cells [7]: Rx::Venus-positive cells were widely maintained

FGF2: fibroblast growth factor, FGF signaling pathway agonist
maintenance of Rx::Venus-positive cells [7]: Rx::Venus-positive cells were widely maintained
expression intensity of Rx::Venus [2]: high expression intensity of Rx::Venus
